2 compounds from patent publication US6191153A, “Use of 2-amino-6-n-propyl-amino-4,5,6,7-tetrahydrobenzothiazole as a pharmaceutical composition having an antidepressant activity” (Boehringer Ingelheim KG, priority 1992, dated 2001) can be followed below.

One series has as its system rats. As to the kind of experiment: Forced swimming test (immobility time, antidepressant activity). The series is classed as in vivo. The settings on record: parenteral, eight rats. The protocol:
Details of this behavioural test are described for example by Willner, Psychopharmacology 83, 1-16 (1984) and by Borsini and Meli, Psychopharmacology 94, 147-160 (1988).
Pramipexol (SND 919) was investigated on eight rats, by comparison with amineptine, a known antidepressant. Both substances were dissolved in physiological saline solution and administered by parenteral route.

For series [1] the following is noted: in vivo.
The conditions of series [2]: in vivo. This is another data set of the same source.

For `O=C(O)CCCCCCNC1c2ccccc2CCc2ccccc21` [Amineptine, reference compound], the Immobility time with rats (dose 20.00 mg/kg) was 134 ± 19 s.

With `CCCN[C@H]1CCc2nc(N)sc2C1` [SND 919, 2-amino-6-n-propyl-amino-4,5,6,7-tetrahydrobenzothiazole], the Immobility time in the series with rats (dose 0.03 mg/kg) is 210 ± 14 s; in the series on rats (dose 0.10 mg/kg) it was 165 ± 6 s; in the series with rats (dose 0.30 mg/kg), 102 ± 17 s. Further, the bioavailability (usually the share of a dose that reaches the circulation, judged against a reference dose that is usually intravenous) in series [1] was over 80%. In addition, the half-life (as a rule, the time needed for the level to fall by half in the phase considered) in series [1] was 12.5 h. Besides, in series [2], the tolerability entry is “extremely well tolerated”.
